# Measurements: patent US20240209061A1, “FUSION PROTEINS AND USES THEREOF” (Pfizer Inc., priority 2020, published 2024)
# Test system: CT26 murine colorectal carcinoma cells
# Assay: CT26 colorectal carcinoma model, combination with αPD1 antibody
# Format: in vivo, mouse
# Conditions: for Day 13 tumor volume / % tumor growth inhibition: αPD1 Ab 10 mg/kg where combined; for % tumor growth inhibition: Day 13
# Description: CT26 murine colorectal carcinoma cells (1×10^6) were subcutaneously implanted in the hind flank of female Balb/c mice. When tumors reached ˜100 mm3 (day 8 after implantation), mice were randomized and dosed with PBS vehicle control, 0.1 mg/kg CD80-D90Q-Fc, and/or 10 mg/kg murine αPD1 antibody. CD80-D90Q-Fc was dosed on Days 0 and 3, αPD1 antibody was dosed on Days 0, 3 and 6. Tumor volume was determined by caliper measurements obtained in 2 dimensions and calculated as width^2×length/2. Error bars are depicted as ±SEM
# IFNγ ELIspot was used to measure tumor-reactive T cells in the spleen and TDLNs in mice treated with 1 mg/kg D90Q, αPD1 Ab, or the combination. […] The combination led to an even higher amount of tumor-reactive T cells in the TDLN compared to either agent alone.
# [1] = CD80-D90Q-Fc 1 mg/kg and/or αPD1 Ab, n=4 per group
substance,measurement,setting,value
CD80-D90Q-Fc: variant CD80 ECD (D90Q) fused to human IgG1 Fc,"Tumor-reactive T cells (IFNγ ELIspot), Spleen",[1],881.42
same,"Tumor-reactive T cells (IFNγ ELIspot), TDLN",[1],361.08
same,Day 13 tumor volume,CD80-Fc dose 0.1 mg/kg,776.1 mm^3
same,Day 13 tumor volume,CD80-Fc dose 1 mg/kg,270.4 mm^3
same,% tumor growth inhibition,CD80-Fc dose 0.1 mg/kg,61.2%
same,% tumor growth inhibition,CD80-Fc dose 1 mg/kg,86.5%
